# Measured values as given in ChEMBL document CHEMBL3616373, “Identification of N-sulfonyl-tetrahydroquinolines as RORc inverse agonists” (Bioorg Med Chem Lett, 2015).
# pEC50: −log10 of the molar value. The source made the active and inactive calls. No cut-off for these calls is given here.
# Assays:
# [1] = target: T1, Oxysterols receptor LXR-alpha (Homo sapiens, UniProt Q13133); experiment: Antagonist activity at GAL4-fused human LXRalpha expressed in HEK293 cells assessed as inhibition of T0901317-stimulated transcriptional activity after 20 hrs by dual-glo luciferase reporter gene assay; format: cell-based
# T1 sequence (Q13133 whole entry): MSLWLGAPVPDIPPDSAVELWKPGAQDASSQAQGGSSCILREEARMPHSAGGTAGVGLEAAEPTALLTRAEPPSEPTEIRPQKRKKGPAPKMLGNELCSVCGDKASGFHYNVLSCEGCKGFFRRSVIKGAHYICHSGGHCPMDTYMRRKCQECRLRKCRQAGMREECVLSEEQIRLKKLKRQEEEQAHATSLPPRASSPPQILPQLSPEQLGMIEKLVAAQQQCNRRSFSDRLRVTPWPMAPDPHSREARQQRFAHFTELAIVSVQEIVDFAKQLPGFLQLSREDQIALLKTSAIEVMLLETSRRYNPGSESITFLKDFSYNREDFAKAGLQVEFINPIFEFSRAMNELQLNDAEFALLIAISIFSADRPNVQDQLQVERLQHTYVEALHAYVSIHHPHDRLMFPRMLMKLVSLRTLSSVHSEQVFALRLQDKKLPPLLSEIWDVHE
# [2] = target: T2, Nuclear receptor subfamily 1 group I member 2 (Homo sapiens, UniProt O75469); experiment: Agonist activity at GAL4-fused human PXR expressed in HEK293 cells assessed as activation of basal transcriptional activity up to 10 uM after 20 hrs by dual-glo luciferase reporter gene assay; format: cell-based; conditions: hek293, 20 h
# T2 sequence (O75469 whole entry): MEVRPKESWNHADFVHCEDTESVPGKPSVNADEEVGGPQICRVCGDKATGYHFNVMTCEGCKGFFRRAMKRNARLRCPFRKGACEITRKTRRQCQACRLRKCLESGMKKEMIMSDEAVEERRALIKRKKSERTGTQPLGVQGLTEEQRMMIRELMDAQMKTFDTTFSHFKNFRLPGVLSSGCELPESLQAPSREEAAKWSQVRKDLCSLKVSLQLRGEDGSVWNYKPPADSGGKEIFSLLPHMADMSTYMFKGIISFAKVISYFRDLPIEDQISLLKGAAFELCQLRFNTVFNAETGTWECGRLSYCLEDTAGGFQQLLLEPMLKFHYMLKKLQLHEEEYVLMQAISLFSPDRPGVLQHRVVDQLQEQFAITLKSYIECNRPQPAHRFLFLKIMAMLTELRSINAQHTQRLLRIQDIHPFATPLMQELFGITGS
# [3] = target: T3, Bile acid receptor (Homo sapiens) (UniProt Q96RI1); experiment: Agonist activity at GAL4-fused human FXR expressed in HEK293 cells assessed as activation of basal transcriptional activity up to 10 uM after 20 hrs by dual-glo luciferase reporter gene assay; format: cell-based
# T3 sequence (whole entry): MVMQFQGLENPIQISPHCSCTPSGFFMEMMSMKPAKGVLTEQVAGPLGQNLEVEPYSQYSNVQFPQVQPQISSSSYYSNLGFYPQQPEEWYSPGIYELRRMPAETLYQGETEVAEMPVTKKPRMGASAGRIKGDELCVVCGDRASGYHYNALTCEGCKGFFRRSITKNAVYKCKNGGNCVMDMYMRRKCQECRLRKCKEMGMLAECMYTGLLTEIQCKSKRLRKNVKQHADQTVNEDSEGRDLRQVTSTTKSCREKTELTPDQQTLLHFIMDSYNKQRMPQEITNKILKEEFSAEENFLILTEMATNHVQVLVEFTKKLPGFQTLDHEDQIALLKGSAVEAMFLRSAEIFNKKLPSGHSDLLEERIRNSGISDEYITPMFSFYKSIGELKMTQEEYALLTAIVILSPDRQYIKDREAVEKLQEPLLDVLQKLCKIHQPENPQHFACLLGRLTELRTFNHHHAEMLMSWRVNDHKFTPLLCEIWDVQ
# [4] = Plasma protein binding in rat at 5 uM after 4 hrs by equilibrium dialysis method; format: ADME, cell-free; conditions: read-out: PPB
# [5] = target: T2, Nuclear receptor subfamily 1 group I member 2; experiment: Antagonist activity at GAL4-fused human PXR expressed in HEK293 cells assessed as inhibition of T0901317-stimulated transcriptional activity after 20 hrs by dual-glo luciferase reporter gene assay; format: cell-based
# Bile acid receptor = target: T4, Bile acid receptor (Homo sapiens, UniProt Q96RI1); experiment: Antagonist activity at GAL4-fused human FXR expressed in HEK293 cells assessed as inhibition of T0901317-stimulated transcriptional activity after 20 hrs by dual-glo luciferase reporter gene assay; format: cell-based
# T4 sequence (Q96RI1 whole entry): T3 sequence (whole entry)
# [6] = target: T5, Oxysterols receptor LXR-beta (Homo sapiens) (UniProt P55055); experiment: Agonist activity at GAL4-fused human LXRbeta expressed in HEK293 cells assessed as activation of basal transcriptional activity up to 10 uM after 20 hrs by dual-glo luciferase reporter gene assay; format: cell-based
# T5 sequence (whole entry): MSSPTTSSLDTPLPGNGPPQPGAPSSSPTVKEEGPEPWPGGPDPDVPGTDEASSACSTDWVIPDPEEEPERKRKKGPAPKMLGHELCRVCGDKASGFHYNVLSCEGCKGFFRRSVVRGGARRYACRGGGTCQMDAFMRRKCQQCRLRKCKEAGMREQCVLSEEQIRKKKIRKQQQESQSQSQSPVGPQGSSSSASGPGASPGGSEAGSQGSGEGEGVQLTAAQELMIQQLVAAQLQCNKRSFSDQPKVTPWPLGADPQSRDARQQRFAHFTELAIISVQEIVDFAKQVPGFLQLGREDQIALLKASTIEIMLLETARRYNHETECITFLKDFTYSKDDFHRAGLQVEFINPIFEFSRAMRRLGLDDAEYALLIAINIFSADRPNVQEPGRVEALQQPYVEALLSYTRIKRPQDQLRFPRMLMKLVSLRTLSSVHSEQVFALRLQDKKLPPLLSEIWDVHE
# [7] = target: T6, Oxysterols receptor LXR-beta (Homo sapiens, UniProt P55055); experiment: Antagonist activity at GAL4-fused human LXRbeta expressed in HEK293 cells assessed as inhibition of T0901317-stimulated transcriptional activity after 20 hrs by dual-glo luciferase reporter gene assay; format: cell-based
# T6 sequence (P55055 whole entry): T5 sequence (whole entry)
Compound,pEC50 [1],Activity [2],Activity [3],"fraction unbound at 4 h, 5 µM [4]",pEC50 [5],pEC50 (Bile acid receptor),Activity [6],pEC50 [7]
O=C(Nc1ccc2c(c1)N(S(=O)(=O)c1ccc(F)cc1)CCC2)c1ccccc1Cl,5.59,Not Active,inactive,< 0.01,6.03,5.23,inactive,5.42
O=C(Nc1ccc2c(c1)N(S(=O)(=O)c1ccc(F)cc1)CCC2)c1c(F)cccc1Cl,–,Not Active,inactive,< 0.01,6.09,5.28,inactive,5.59
O=C(Nc1ccc2c(c1)N(S(=O)(=O)c1ccc(F)cc1)CCC2)c1c(F)cccc1F,5.39,Not Active,inactive,0.01,5.96,5.12,inactive,5.49
O=C(Nc1ccc2c(c1)N(S(=O)(=O)c1ccc(F)cc1)CC2)c1c(F)cccc1F,5.38,Not Active,inactive,0.01,5.32,5.38,inactive,5.24
